# Results published in patent publication US8377468B2, “Dry wound dressing and drug delivery system” (Rexaderm, Inc., priority 2006, dated 2013).
# Test system: diabetic leg ulcer
# Assay: Case report: treatment of a diabetic leg ulcer
# Format: in vivo, human
# Text: FIG. 1-6 are a series of 6 pictures taken sequentially after treatment of a leg ulcer, which had persisted for over 6 months without healing, using the dry dressing described herein that contained human cellular fibronectin (cFN).
# The cFN dressing was held on with either a 4×4 sponge and tape or with a BAND-AID™ (adhesive bandage).
# A few months after the lesion occurred, a dermatologist obtained a biopsy sample, and the ulcer became infected, resulting in a larger lesion that was greatly inflamed. The lesion was treated with Avelox™. It appeared to heal in a few months, when the patient removed what appeared to be dead skin. The lesion opened again, and the patient treated it with Neosporin, Iodine, and Merthiolate. The dermatologist took a swab of the lesion. After the patient used the Bactro-Ban (Muciprocin) recommended by the dermatologist for two weeks, the wound became worse so the patient sealed it with Merthiolate. A bleeding lesion the size of a nickel persisted. The patient began treatment with cFN wound dressing of Example 2 about two weeks later, changing the dressing every 48 hours except for the first day. (The first change was at 24 hours). For the first 4 days, the material was fixed to the wound with a 4×4 gauze pad and an ACE bandage, then with a Band-Aid. […]
structure (smiles),measurement,setting,value
"C/C(=C\C(=O)OCCCCCCCCC(=O)O)C[C@@H]1OC[C@H](C[C@@H]2O[C@H]2[C@@H](C)[C@H](C)O)[C@@H](O)[C@H]1O [Bactro-Ban, Muciprocin]",lesion size,"FIG. 1, after wound was treated for two weeks",12-15 mm
same,wound outcome,used for two weeks,became worse
